Broadly, the EC50 is the concentration that produces a half-maximal response. What is called pEC50 is −log10 of the EC50, conventionally taken in molar units.

The values below come from article PMC5958064, “Single cell analysis of kynurenine and System L amino acid transport in T cells” (Nature Communications, 2018).

Molecules are shown by their SMILES. pEC50: −log10 of the molar value.

For data set [1], the system named is Cyp1a1 (mRNA, through AHR). As to the kind of experiment: Cyp1a1 mRNA induction in TH17cond CD4+ T cells (qPCR). In kind it is cell-based, mouse. To be noted: mouse, day 3 TH17-conditioned primary CD4+ T cells, D3 TH17cond CD4+ T cells, 2 h; read-out: EC50 to drive Cyp1A1 mRNA expression. On the procedure: To activate primary T cells, spleens and/or lymph nodes (LN) were removed, disaggregated and red blood cells lysed. Cells were stimulated with 1 μg/ml of the CD3 monoclonal antibody (2C11) and 2 μg/ml anti-CD28 (37.51; ebiosciences) to trigger the TCR. Naive CD4^+ T cells and 24 h TCR-activated CD4^+ T cells were purified using CD4 isolation kit (EasySep, STEMCELL Technologies). […] Proleukin, Novartis) for a further 3–5 days. To generate TH1s and TH17s, murine CD8^+ T cells were depleted from lymph node preparations using CD8 depletion kit (EasySep, STEMCELL Technologies). […] RnD Systems) and IL-2 (20 ng/ml) and for TH17s; cytokines IL-6 (50 ng/ml, Peprotech), IL-1β (10 ng/ml, Peprotech) and TGFβ (2 ng/ml, Peprotech). TH17s were cultured in IMDM (Gibco). All other cells were cultured in RPMI 1640 containing L-glutamine (Gibco). Culture media was supplemented with 10% FBS (Gibco), 50 μM β-mercaptoethanol (β-ME, Sigma) and penicillin/streptomycin (Gibco). Cells were incubated at 37 °C with 5% CO2 throughout. […] RNA was purified using the RNeasy RNA purification Mini Kit (Qiagen) (Genomic DNA was digested with RNase-free DNase (Qiagen) following manufacturer instructions) and reverse-transcribed using the iScript cDNA synthesis kit (BioRad). Quantitative PCR was performed in 96-well plate format using iQ SYBR Green-based detection (BioRad) on a BioRad iCycler.

For the next data set, the system named is mTORC1. As to the kind of experiment: mTORC1 activity in CTLs after leucine removal and refeeding. The class given is cell-based, mouse. The conditions noted are these: CTLs removed from leucine, refed leucine 100uM ± Kyn 100uM. The source says:
page 13: • We […] would not be able to measure the levels of in vivo ky nurenine uptake with this assay (for the reasons explained above). However, this is a pertinent question, and will relate to the total amount of available kynurenine compared to alternative System L substrates. The detailed micro-environmental metabolomics techniques required to perform this kind of analysis is beyond the scope of this paper, however we have tried to address this point in the discussion. Second, did CD4 T cells (Foxp3-) and Tregs (Foxp3+) from Lm-infected mice also i mport Ky n? […] This, also, is a very interesting aspect, however we feel that it is beyond the scope of this paper. Point 4: Data presented in Figures 4 & 5 show convincingly that SLC7A5 ablation in CD4 T cells abolishes Kyn uptake in CD4 T cells selectively and that imported Kyn triggers AhR signaling in CD4 T cells, respectively. However, no data is presented to address the biological significance of these findings, specifically regarding the reported ability of Kyn to suppress Th1 responses (e.g. IFNg production) or to reinforce Treg-mediated suppression of effector T cells via AhR signaling. […]

Data set [2] relates to Cyp1A1 expression in U87 glioma cells. Further details: method as in PMID 21976023. To be noted: read-out: EC50 to drive Cyp1A1 expression; cited from earlier work.
Another data set has as its system AHR. Further details: method as in PMID 25657351, PMID 29279331. The conditions noted are these: cited from earlier work.
A further data set concerns the target T1, System L transporter (Mus musculus, UniProt Q9Z127).
T1 construct: Radiolabelled tracer uptake in IL-2 maintained TH1 cells (top panels) and IL-2 maintained CTLs (bottom panels); endogenous in cells; host or cells: IL-2 maintained mouse TH1 cells and CTLs
As to the kind of experiment: Radiolabelled 3H-tryptophan uptake in TH1 cells and CTLs. The conditions noted are these: BCH 5 mM. In kind it is cell-based. On the procedure: (§1) Briefly, radiolabelled uptake was carried out using 1 × 10^6 cells resuspended in 0.4 ml uptake medium. Kynurenine uptake was carried out in warmed (37 °C) HBSS (GIBCO) containing [^3H] L-kynurenine (0.1 μCi/ml). 4 min uptake assays were carried out layered over 0.5 ml of 1:1 silicone oil (Dow Corning 550 (BDH silicone products; specific density, 1.07 g/ml):dibutyl phthalate (Fluka)). Cells were pelleted below the oil, the aqueous supernatant solution, followed by the silicon oil/dibutyl phthalate mixture was aspirated, and the cell pellet underneath resuspended in 200 μl NaOH (0.5 M) and β-radioactivity measured by liquid scintillation counting in a Beckman LS 6500 Multi-Purpose Scintillation Counter (Beckman Coulter). Similarly, glutamine uptake was performed using [^3H] L-glutamine (0.5 μCi/ml); tryptophan uptake was performed using [^3H] L-tryptophan (0.5 μCi/ml). Where indicated, 5 mM BCH, Kynurenine, L-glutamine or L-tryptophan were used, respectively, to quench radiolabeled ligand uptake. Where indicated, the sodium free buffer was prepared using TMACl as described in Baird et al.[35] Data are expressed as molecules radiotracer per cell per minute. [^3H] L-kynurenine, [^3H] L-tryptophan and [^3H] L-glutamine were obtained from Perkin Elmer. All other chemicals were obtained from Sigma.

In a further data set the test system is activated T cells. In words: Radiolabelled 3H-glutamine uptake in activated T cells. The class given is cell-based, mouse. To be noted: IL-2 maintained TH1 cells and CTLs, BCH 5 mM. On the procedure:
as §1

For the next data set, the system named is D3 TH17cond CD4+ T cells. In words: FICZ uptake by flow cytometry (530 nm emission). In kind it is cell-based, mouse. To be noted: FICZ 300 nM, 4 min, BCH 10 mM. (A flow cytometer gives signals particle by particle.)
The target in data set [3] is T2, System L transporter SLC7A5 (Mus musculus, UniProt Q9Z127).
T2 construct: endogenous in cells
T2 sequence (Q9Z127 whole entry): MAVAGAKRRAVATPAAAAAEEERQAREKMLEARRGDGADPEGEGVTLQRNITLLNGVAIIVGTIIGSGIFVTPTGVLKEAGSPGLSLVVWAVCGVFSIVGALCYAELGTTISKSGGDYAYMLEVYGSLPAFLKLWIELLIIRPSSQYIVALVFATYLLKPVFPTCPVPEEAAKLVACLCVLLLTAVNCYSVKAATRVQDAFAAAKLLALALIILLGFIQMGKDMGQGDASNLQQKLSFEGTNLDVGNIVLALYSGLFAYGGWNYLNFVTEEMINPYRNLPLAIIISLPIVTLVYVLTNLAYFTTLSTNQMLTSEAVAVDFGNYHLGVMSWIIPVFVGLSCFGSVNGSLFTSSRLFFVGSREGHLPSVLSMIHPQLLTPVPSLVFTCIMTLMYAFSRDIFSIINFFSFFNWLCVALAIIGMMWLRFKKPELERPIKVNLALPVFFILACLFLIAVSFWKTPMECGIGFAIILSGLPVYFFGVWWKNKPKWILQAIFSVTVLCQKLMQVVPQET
T2 sequence (P10852 whole entry partner): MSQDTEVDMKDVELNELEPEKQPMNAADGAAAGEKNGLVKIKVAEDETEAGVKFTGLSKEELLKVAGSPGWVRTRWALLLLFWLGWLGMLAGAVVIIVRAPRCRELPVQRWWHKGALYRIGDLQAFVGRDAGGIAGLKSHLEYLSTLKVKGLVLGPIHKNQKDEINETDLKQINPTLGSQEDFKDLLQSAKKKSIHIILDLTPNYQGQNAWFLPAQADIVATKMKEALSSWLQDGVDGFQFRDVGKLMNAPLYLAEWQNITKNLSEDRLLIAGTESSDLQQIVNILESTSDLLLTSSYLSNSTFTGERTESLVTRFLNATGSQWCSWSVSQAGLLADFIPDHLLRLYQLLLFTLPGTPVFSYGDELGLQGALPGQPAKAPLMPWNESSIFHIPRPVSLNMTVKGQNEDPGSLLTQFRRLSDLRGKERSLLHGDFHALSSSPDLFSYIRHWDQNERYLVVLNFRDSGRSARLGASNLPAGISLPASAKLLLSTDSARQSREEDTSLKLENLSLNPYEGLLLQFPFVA
As to the kind of experiment: Flow cytometry kynurenine uptake assay (450 nm fluorescence) in T cells. The class given is cell-based. The conditions noted are these: D3 TH17cond CD4+ T cells, kynurenine 100 μM, 4 min, BCH 10 mM.

T1 sequence (Q9Z127 whole entry): as the sequence (Q9Z127 whole entry) above
T1 sequence (P10852 whole entry partner): as the sequence (P10852 whole entry partner) above
From the text for D3 TH17cond CD4+ T cells: Error bars are ±s.d. Individual points indicate biological replicates. MFIs are indicated in the histograms, data are from three biological replicates (a–g, i–j) and six (Kyn) or three biological replicates (FICZ) (h).
As a control, we used the AHR ligand 6-formylindolo[3,2-b]carbazole (FICZ), a tryptophan-derived photoproduct. The intrinsic fluorescence of FICZ has previously been used to monitor cellular accumulation of FICZ by flow cytometry using BP filter for 530/30 nm emission with 488 nm laser excitation[27]. […] Further evidence for the importance of System L transport for kynurenine action came from experiments using BCH treatment to inhibit System L transport.

With `Nc1ccccc1C(=O)CC(N)C(=O)O` (centres unmarked) [kynurenine], the EC50 at 2 h in data set [1] is 11 µM. For the same compound, the “effect on mTORC1 activity” value in the data set on mTORC1 is on record as “impair restoration of mTORC1 activity”. For the same compound, the pEC50 in data set [2] was 4.91. Also, the “concentrations needed to activate the AHR” value with AHR is given as “μM levels”.

For the compound `NC1(C(=O)O)CC2CCC1C2` (centres unmarked) [BCH, 2-amino-2-norbornanecarboxylic acid], the “effect on 3H-tryptophan transport” value on System L transporter is recorded as “inhibited”. Besides, the “effect on radiolabelled glutamine uptake” value in the data set with activated T cells was “failure to block”. Moreover, in the data set with D3 TH17cond CD4+ T cells, the “effect on FICZ uptake” value was “not affected”. The “effect on kynurenine uptake” value in data set [3] was “inhibited”.
